Results as given in patent US20130204033A1, “ANTIPROLIFERATIVE COMPOUNDS, CONJUGATES THEREOF, METHODS THEREFOR, AND USES THEREOF” (Medarex, Inc., priority 2009, published 2013).
Where two headings read alike, the source gives them in different places.

Columns and labels:
Format in all cases: cell-based, human
NCI-H460 = experiment: ATP luminescence proliferation assay, NCI-H460
Procedure, shortened: (§1)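 Cells seeded at 1.0×10^3 cells/well for 3 h, then exposed to 1:3 serial dilutions of free compounds or conjugates for 48, 72 or 96 h as noted. ATP measured by Glo luminescent viability kit; EC50 taken as concentration reducing proliferation by 50%.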

H740 = experiment: 3H thymidine proliferation assay, H740
Procedure, shortened: (§2)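 Tumour cells were plated at 1.0×10^4 per well and, after 3 h, treated with threefold serial dilutions of compound or conjugate. Total incubation was 72 h, with a 1.0 μCi ^3H-thymidine pulse over the last 24 h. Counts gave the 50% inhibition concentration (EC50).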

Hep3B = experiment: ATP luminescence proliferation assay, Hep3B
Procedure, shortened: as §1

SKOV3 = experiment: ATP luminescence proliferation assay, SKOV3
Procedure, shortened: as §1

DMS53 [1] = experiment: ATP luminescence proliferation assay, DMS53
Procedure, shortened: as §1

BT474 [2] = experiment: 3H thymidine proliferation assay, BT474
Procedure, shortened: as §2

786-O = experiment: 3H thymidine proliferation assay, 786-O
Procedure, shortened: as §2

Raji = experiment: 3H thymidine proliferation assay, Raji
Procedure, shortened: as §2

A2058 = experiment: 3H thymidine proliferation assay, A2058; details: 3H thymidine method, 72 h incubation
Procedure, shortened: as §2

BT474 [3] = experiment: ATP luminescence proliferation assay, BT474
Procedure, shortened: as §1

HPAC [4] = experiment: ATP luminescence proliferation assay, HPAC
Method: This example generally describes the procedures used to assay the antiproliferative activity of compounds of this invention or their conjugates. Human tumor cell lines were obtained from the American Type Culture Collection (ATCC), P.O. Box 1549, Manassas, Va. 20108, USA, and cultured according to instruction from the ATCC. Cells were seeded at 1.0×10^3 or 1.0×10^4 cells/well in 96-well plates for 3 h for ATP assays or ^3H thymidine assays, respectively. 1:3 serial dilutions of free (unconjugated) compounds or their conjugates were added to the wells. Plates were allowed to incubate for 24 to 72 h. The ^3H thymidine plates were pulsed with 1.0 μCi of ^3H-thymidine per well for the last 24 hours of the total incubation period, harvested, and read on a Top Count Scintillation Counter (Packard Instruments, Meriden, Conn.). ATP levels in the ATP plates were measured using the […]-GLO® Luminescent Cell Viability kit following the manufacturer's manual and read on a GLOMAX® 20/20 luminometer (both from Promega, Madison, Wis., USA). The EC50 values—the concentration at which an agent inhibits or reduces cell proliferation by 50% —were determined using PRISM™ software, version 4.0 (GraphPad Software, La Jolla, Calif., USA).
Using the ^3H thymidine or the ATP luminescence assay, or both, the activities of compounds of this invention were assayed against the following cancer cell lines: HCT-15 (colorectal cancer, multi-drug resistant (MDR)); Hep3B (liver cancer); LNCaP (prostate cancer, androgen receptor positive (AR^+)); MDA-MB-231 (breast cancer, estrogen receptor, progesterone receptor, and Her2 negative (triple negative)); A2058 (melanoma); U-87 MG (glioblastoma); NCI-H460 (NSCLC); A549 (NSCLC); HPAC (pancreatic cancer, primary); PC3 (prostate cancer, AR); BT474 (breast cancer, Her2 highly positive (Her2hi)); SKOV3 (ovarian cancer, Her2hi); 786-O (renal cancer); UO-31 (renal cancer, MDR); NCI-H740 (SCLC); DMS53 (SCLC); SK-BR3 (breast cancer, Her2hi); ZR-75 (breast cancer, estrogen receptor positive); OVCAR3 (ovarian cancer); HL-60 (APL); OVCAR8/Adr (ovarian cancer, MDR); CEM-Cl (ALL); Nomo-1 (AML); RPMI-8226 (MM)); Raji (lymphoma); SW-480 (colorectal cancer, metastatic); SW-620 (colorectal cancer); and H226 (lung cancer). (Not all compounds were assayed against all cell lines.)
Table 3 provides the data for the ATP luminescence proliferation assays, with an incubation period of 48, 72, or 96 h, as noted.

OVCAR3 = experiment: 3H thymidine proliferation assay, OVCAR3
Procedure, shortened: as §2

HPAC [5] = experiment: 3H thymidine proliferation assay, HPAC
Procedure, shortened: as §2

OVCAR8 = experiment: 3H thymidine proliferation assay, OVCAR8
Procedure, shortened: as §2

CEM-Cl = experiment: ATP luminescence proliferation assay, CEM-C1
Procedure, shortened: as §1

Nomo-1 [6] = experiment: 3H thymidine proliferation assay, Nomo-1
Procedure, shortened: as §2

Nomo-1 [7] = experiment: ATP luminescence proliferation assay, Nomo-1
Procedure, shortened: as §1

PC3 = experiment: 3H thymidine proliferation assay, PC3
Procedure, shortened: as §2

SK-BR3 = experiment: 3H thymidine proliferation assay, SK-BR3; details: 3H thymidine method, 72 h incubation
Procedure, shortened: as §2

HL-60 = experiment: 3H thymidine proliferation assay, HL-60
Procedure, shortened: as §2

DMS53 [8] = experiment: 3H thymidine proliferation assay, DMS53
Procedure, shortened: as §2

CC[C@H](C)[C@H](NC(=O)[C@H]1CCCCN1C)C(=O)N(C)[C@H](C[C@@H](OC)c1nc(C(=O)N[C@@H](Cc2ccc(N)cc2)CC(C)C(=O)O)cs1)C(C)C (stereo partly drawn) [Compound 51]
EC50 (NCI-H460; ATP luminescence, NCI-H460, 72 h incubation, read-out: EC50 NCI-H460 (72 h)): 14 nM | EC50 (H740; 3H thymidine method, 72 h incubation, read-out: EC50, H740): 37 nM | EC50 (Hep3B; ATP luminescence, 48 h incubation, read-out: EC50 Hep3B (48 h)): 3.8 nM | EC50 (SKOV3; ATP luminescence, SKOV3, 72 h incubation, read-out: EC50 SKOV3 (72 h)): 10 nM | EC50 (DMS53 [1]; ATP luminescence, DMS53, 72 h incubation, read-out: EC50 DMS53 (72 h)): 46 nM | EC50 (BT474 [2]; 3H thymidine method, 72 h incubation, read-out: EC50, BT474): 30 nM | EC50 (786-O; 3H thymidine method, 72 h incubation, read-out: EC50, 786-O): 10 nM | EC50 (Raji; 3H thymidine method, 72 h incubation, read-out: EC50, Raji): 1.5 nM | EC50 (A2058): 0.4 nM | EC50 (BT474 [3]; ATP luminescence, BT474, 48 h incubation, read-out: EC50 BT474 (48 h)): 11 nM | EC50 (HPAC [4]; ATP luminescence, 72 h incubation, read-out: EC50 HPAC (72 h)): 4.5 nM | EC50 (OVCAR3; 3H thymidine method, 72 h incubation, read-out: EC50, OVCAR3): 2.5 nM | EC50 (HPAC [5]; 3H thymidine method, 72 h incubation, read-out: EC50, HPAC): 6.4 nM | EC50 (OVCAR8; 3H thymidine method, 72 h incubation, read-out: EC50, OVCAR8): 20 nM | EC50 (CEM-Cl; ATP luminescence, CEM-C1, 72 h incubation, read-out: EC50 CEM-C1 (72 h)): 4.8 nM | EC50 (Nomo-1 [6]; 3H thymidine method, 72 h incubation, read-out: EC50, Nomo-1): 3.5 nM | EC50 (Nomo-1 [7]; ATP luminescence, Nomo-1, 72 h incubation, read-out: EC50 Nomo-1 (72 h)): 7.4 nM | EC50 (PC3; 3H thymidine method, 72 h incubation, read-out: EC50, PC3): 5.6 nM | EC50 (SK-BR3): > 100 nM | EC50 (HL-60; 3H thymidine method, 72 h incubation, read-out: EC50, HL-60): 4.2 nM | EC50 (DMS53 [8]; 3H thymidine method, 72 h incubation, read-out: EC50, DMS53): 24 nM

CC[C@H](C)[C@H](NC(=O)[C@H]1CCCCN1C)C(=O)N(COC(=O)CC(C)C)[C@H](C[C@@H](OC(C)=O)c1nc(C(=O)N[C@@H](Cc2ccc(N)cc2)CC(C)C(=O)O)cs1)C(C)C (stereo partly drawn) [Compound 54]
EC50 (NCI-H460; Homo sapiens, NCI-H460, 72 h, read-out: EC50 NCI-H460 (72 h), ATP luminescence, NCI-H460, 72 h incubation): 1.6 nM | EC50 (H740; Homo sapiens, read-out: EC50, H740, 3H thymidine method, 72 h incubation): 10 nM | EC50 (Hep3B; Homo sapiens, 48 h, read-out: EC50 Hep3B (48 h), ATP luminescence, Hep3B, 48 h incubation): 1.5 nM | EC50 (SKOV3; Homo sapiens, SK-OV-3, 72 h, read-out: EC50 SKOV3 (72 h), ATP luminescence, SKOV3, 72 h incubation): 1.3 nM | EC50 (DMS53 [1]; Homo sapiens, DMS-53, 48 h, read-out: EC50 DMS53 (48 h), ATP luminescence, DMS53, 48 h incubation): 7.9 nM | EC50 (BT474 [2]; Homo sapiens, BT-474, read-out: EC50, BT474, 3H thymidine method, 72 h incubation): 8.8 nM | EC50 (786-O; Homo sapiens, 786-0, read-out: EC50, 786-O, 3H thymidine method, 72 h incubation): 6.9 nM | EC50 (Raji; Homo sapiens, Raji, read-out: EC50, Raji, 3H thymidine method, 72 h incubation): 0.2 nM | EC50 (A2058; Homo sapiens, A2058): 0.64 nM | EC50 (BT474 [3]; Homo sapiens, BT-474, 48 h, read-out: EC50 BT474 (48 h), ATP luminescence, BT474, 48 h incubation): 4.8 nM | EC50 (HPAC [4]; Homo sapiens, 72 h, read-out: EC50 HPAC (72 h), ATP luminescence, HPAC, 72 h incubation): 0.96 nM | EC50 (OVCAR3; Homo sapiens, OVCAR-3, read-out: EC50, OVCAR3, 3H thymidine method, 72 h incubation): 3.9 nM | EC50 (HPAC [5]; Homo sapiens, HPAC, read-out: EC50, HPAC, 3H thymidine method, 72 h incubation): 0.83 nM | EC50 (OVCAR8; Homo sapiens, OVCAR-8, read-out: EC50, OVCAR8, 3H thymidine method, 72 h incubation): 2.1 nM | EC50 (CEM-Cl; Homo sapiens, CEM/C1, 72 h, read-out: EC50 CEM-C1 (72 h), ATP luminescence, CEM-C1, 72 h incubation): 1.2 nM | EC50 (Nomo-1 [6]; Homo sapiens, NOMO-1, read-out: EC50, Nomo-1, 3H thymidine method, 72 h incubation): 0.77 nM | EC50 (Nomo-1 [7]; Homo sapiens, NOMO-1, 48 h, read-out: EC50 Nomo-1 (48 h), ATP luminescence, Nomo-1, 48 h incubation): 3.1 nM | EC50 (PC3; Homo sapiens, PC-3, read-out: EC50, PC3, 3H thymidine method, 72 h incubation): 0.82 nM | EC50 (SK-BR3; Homo sapiens, SK-BR-3): 1.1 nM | EC50 (HL-60; Homo sapiens, HL-60, read-out: EC50, HL-60, 3H thymidine method, 72 h incubation): 0.53 nM | EC50 (DMS53 [8]; Homo sapiens, DMS-53, read-out: EC50, DMS53, 3H thymidine method, 72 h incubation): 2 nM
